Data on 2 molecules can be found in patent publication US10098974B2, “Catalytic radiofluorination” (priority 2004, dated 2018).

The subject of one data set is C-6BAG glioma. As to conditions: period of 240 minutes.
A further data set has as its system MCF-7. To be noted: MCF-7, period of 240 minutes.
The subject of the next data set is C6 glioma cell line. To be noted: from maximum accumulation at 30 minutes.
The conditions of data set [1]: rat, microPET.
Experimental: (§1) Rats (250-300 grams) or rabbits (3-4 Kg) were anesthetized and placed ventrally to the imaging position and 0.4-1 mCi of the FTPP was injected into the vain. Three-dimensional dynamic data were acquired in list mode for one hour starting from the injection of the radiolabeled ligand.
(§2) PET imaging was conducted with a microPET, P4 system (Concorde Microsystems Inc, Knoxville, Tenn.). The length of the field of view is 8 cm and the diameter is 22 cm allowing entire upper body imaging of the rat or rabbit during a single acquisition. The imaging parameters of this system are in-plane and axial resolution of 1.2 mm full width of photopeak measured at half maximal count.
The conditions of data set [2]: rabbit.
Experimental: as §1, §2
The rabbit was anesthetized, placed in the microPET camera (body marks in the camera positioning were made) and sequential images were obtained for ten minutes following the administration of 3 mCi of N-13-ammonia (FIG. 10). One hour later, FTPP was injected followed by 60 minute sequential imaging of the rabbit (FIG. 11). Image corrections for the remaining N-13-ammonia activity were made with an appropriate program. One day later, the same rabbit underwent an LAD occlusion protocol, positioned in the same camera field of view and the above dual agent imaging sequence was repeated.
A short description of data set [3]: Biodistribution of FTTP in rats after intravenous administration.
The mark [4] stands for this setting: 5 min post administration (Table 1).
Where [5] appears, read: 30 min post administration (Table 1).
The mark [6] stands for this setting: 60 min post administration (Table 1).

Where two headings read alike, the source gives them in different places.

Regarding “[I-125]-p-iodophenyltriphenylphosponium nitrate [TPPI]”, the cell retention entry is “High retention” with C-6BAG glioma, “High retention” in the data set on MCF-7 and “partial washout” in the data set with C6 glioma cell line. Moreover, in the data set on CV-1 normal cell line, the cell uptake result is on record as “no significant uptake”.

With `O=[N+]([O-])[O-].[18F]c1ccc([P+](c2ccccc2)(c2ccccc2)c2ccccc2)cc1` [FTTP, [F-18]-(4-fluorophenyl)triphenylphosphonium nitrate], in data set [1], the “time after injection at which heart activity reaches a plateau” value was found to be 1 min. For the same molecule, the myocardial retention result in data set [2] (late images at 60 min) is on record as “high myocardial retention”. Further, the “time after injection at which heart activity reaches a plateau” value in data set [2] (microPET) worked out at 1 min. Besides, in data set [3] (setting [4]), the Heart/Blood ratio stood at 11 % ID/g, the Heart/Liver ratio was determined as 5 % ID/g and the Heart/Lung ratio is 2 % ID/g. Also, in data set [3] (setting [5]), the Heart/Blood ratio came out at 75 % ID/g, the Heart/Liver ratio is on record as 8 % ID/g and the Heart/Lung ratio came out at 5 % ID/g. Further, in data set [3] (setting [6]), the Heart/Blood ratio was 70 % ID/g, the Heart/Liver ratio is listed as 8 % ID/g and the Heart/Lung ratio amounted to 4 % ID/g. Moreover, in data set [3] (iv, 5 min), the “Bone accumulation (indication of defluorination)” value was determined as 0.31 ID/g, the Heart-to-lung ratio was 2.4, the Lung activity was 0.69 ID/g and the “accumulation in heart relative to blood” value is 11 fold. Also, in data set [3] (iv, 5 min), the “accumulation in heart relative to liver” value is 5 fold, the “accumulation in the heart” value worked out at 1.64 ID/g and the liver uptake stood at 0.18 ID/g. In data set [3] (iv, 30 min), the Heart-to-lung ratio came out at 5.0, the Lung activity was determined as 0.30 ID/g, the liver uptake stood at 0.17 ID/g and the “uptake of radioactivity in the heart” value is given as 1.5 ID/g. Further, in data set [3] (iv, 60 min), the “Bone accumulation (indication of defluorination)” value is on record as 0.39 ID/g, the Heart-to-lung ratio was found to be 3.2, the Lung activity is 0.38 ID/g and the liver uptake is reported as 0.17 ID/g.
